Tests used:
Type in all cases: in vivo
[1] = system: corn (Zea mays); test: Test A postemergence, visual injury rating; conditions: 0 to 100 scale, 0 is no effect, 100 is complete control, approximately 10 days
Outline: (§1)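 Greenhouse pot test, loam/sand soil. Formulation: non-phytotoxic solvent mix plus surfactant. Pre: directed spray onto soil after sowing. Post: plants at 1–2 leaf, 2–10 cm. Rated visually vs untreated controls at ~10 d, 0 (no effect) to 100 (complete control).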

[2] = system: galium (catchweed bedstraw, Galium aparine); test: Test A postemergence, visual injury rating; conditions: 0 to 100 scale, 0 is no effect, 100 is complete control, approximately 10 days
Outline: as §1

[3] = system: wheat (Triticum aestivum); test: Test A postemergence, visual injury rating; conditions: 0 to 100 scale, 0 is no effect, 100 is complete control, approximately 10 days
Outline: as §1

[4] = system: kochia (Kochia scoparia); test: Test A postemergence, visual injury rating; conditions: 0 to 100 scale, 0 is no effect, 100 is complete control, approximately 10 days
Outline: as §1

[5] = system: Italian ryegrass (Lolium multiflorum); test: Test A postemergence, visual injury rating; conditions: 0 to 100 scale, 0 is no effect, 100 is complete control, approximately 10 days
Outline: as §1

[6] = system: barnyardgrass (Echinochloa crus-galli); test: Test A postemergence, visual injury rating; conditions: 0 to 100 scale, 0 is no effect, 100 is complete control, approximately 10 days
Outline: as §1

[7] = system: giant foxtail (Setaria faberii); test: Test A postemergence, visual injury rating; conditions: 0 to 100 scale, 0 is no effect, 100 is complete control, approximately 10 days
Outline: as §1

[8] = system: pigweed (Amaranthus retroflexus); test: Test A postemergence, visual injury rating; conditions: 0 to 100 scale, 0 is no effect, 100 is complete control, approximately 10 days
Outline: as §1

[9] = system: blackgrass (Alopecurus myosuroides); test: Test A postemergence, visual injury rating; conditions: 0 to 100 scale, 0 is no effect, 100 is complete control, approximately 10 days
Outline: as §1

[10] = system: ragweed (common ragweed, Ambrosia elatior); test: Test A postemergence, visual injury rating; conditions: 0 to 100 scale, 0 is no effect, 100 is complete control, approximately 10 days
Outline: as §1

[11] = system: soybean (Glycine max); test: Test C postemergence, plant response rating; conditions: for Soybean plant response rating: scale 0 to 100 (0 no effect, 100 complete control)
Text: (§2) Seeds of plant species selected from blackgrass (Alopecurus myosuroides), ryegrass, Italian (Italian ryegrass, Lolium multiflorum), wheat (winter wheat, Triticum aestivum), galium (catchweed bedstraw, Galium aparine), corn (Zea mays), crabgrass, large (large crabgrass, Digitaria sanguinalis), foxtail, giant (giant foxtail, Setaria faberii), johnsongrass (Sorghum halepense), lambsquarters (Chenopodium album), morningglory (Ipomoea coccinea), nutsedge, yellow (yellow nutsedge, Cyperus esculentus), pigweed (Amaranthus retroflexus), ragweed (common ragweed, Ambrosia elatior), soybean (Glycine max), barnyardgrass (Echinochloa crus-galli), oilseed rape (Brassica napus), pigweed, palmer (palmer pigweed, Amaranthus palmeri), waterhemp (common waterhemp, Amaranthus rudis), velvetleaf (Abutilon theophrasti), kochia (Kochia scoparia), surinam grass (Brachiaria decumbens), nightshade (eastern black nightshade, Solanum ptycanthum), wild poinsettia (Euphorbia heterophylla), windgrass (Apera spica-venti), and oat, wild (wild oat Avena fatua), were planted into a blend of loam soil and sand or a silt loam soil and treated preemergence with test chemicals formulated in a non-phytotoxic solvent mixture which included a surfactant.
(§3) At the same time, plants selected from these crop and weed species and also chickweed (common chickweed, Stellaria media), buckwheat, wild (wild buckwheat, Polygonum convolvulus), wild mustard (Sinapis arvensis), field poppy (Papaver rhoeas), field violet (Viola arvensis), geranium, cutleaf (cutleaf geranium, Geranium dissectum), Canada thistle (Cirsium arvense), and speedwell (bird's-eye speedwell, Veronica persica), were planted in pots containing Sunshine Redi-Earth® planting medium comprising spaghnum peat moss, vermiculite, starter nutrients and dolomitic limestone and treated with postemergence applications of test chemicals formulated in the same manner. Plants ranged in height from 2 to 18 cm (1- to 4-leaf stage) for postemergence treatments. Treated plants and controls were maintained in a greenhouse for 13 to 15 d, after which time all species were compared to controls and visually evaluated. Plant response ratings, summarized in Table C, are based on a scale of 0 to 100 where 0 is no effect and 100 is complete control. A dash (-) response means no test result.

[12] = system: lambsquarters (Chenopodium album); test: Test C postemergence, plant response rating; conditions: for Lambsquarters plant response rating: scale 0 to 100 (0 no effect, 100 complete control)
Text: as §2, §3

[13] = system: oat, wild (wild oat Avena fatua); test: Test C postemergence, plant response rating; conditions: for Oat, Wild plant response rating: scale 0 to 100 (0 no effect, 100 complete control)
Text: as §2, §3

[14] = system: foxtail, giant (giant foxtail, Setaria faberii); test: Test C postemergence, plant response rating; conditions: for Foxtail, Giant plant response rating: scale 0 to 100 (0 no effect, 100 complete control)
Text: as §2, §3

[15] = system: waterhemp (common waterhemp, Amaranthus rudis); test: Test C postemergence, plant response rating
Text: as §2, §3

[16] = system: velvetleaf (Abutilon theophrasti); test: Test C postemergence, plant response rating
Text: as §2, §3

[17] = system: chickweed (common chickweed, Stellaria media); test: Test C postemergence, plant response rating; conditions: for Chickweed plant response rating: scale 0 to 100 (0 no effect, 100 complete control)
Text: as §2, §3

[18] = system: ryegrass, Italian (Italian ryegrass, Lolium multiflorum); test: Test C postemergence, plant response rating; conditions: for Ryegrass, Italian plant response rating: scale 0 to 100 (0 no effect, 100 complete control)
Text: as §2, §3

[19] = system: ragweed (common ragweed, Ambrosia elatior); test: Test C postemergence, plant response rating; conditions: for Ragweed plant response rating: scale 0 to 100 (0 no effect, 100 complete control)
Text: as §2, §3

[20] = 125 g ai/ha, scale 0 to 100 (0 no effect, 100 complete control)

## O=C(CCC(F)(F)F)c1c(Br)cccc1Oc1ncc(Cl)cn1 [Compound 92]
[1]; 31 g ai/ha
  Corn plant response rating: 10
[1]; 125 g ai/ha
  Corn plant response rating: 40
[2]; 31 g ai/ha
  Galium plant response rating: 90
[2]; 125 g ai/ha
  Galium plant response rating: 100
[3]; 31 g ai/ha
  Wheat plant response rating: 0
[3]; 125 g ai/ha
  Wheat plant response rating: 20
[4]; 31 g ai/ha
  Kochia plant response rating: 100
[4]; 125 g ai/ha
  Kochia plant response rating: 100
[5]; 31 g ai/ha
  Ryegrass, Italian plant response rating: 0
[5]; 125 g ai/ha
  Ryegrass, Italian plant response rating: 50
[6]; 31 g ai/ha
  Barnyardgrass plant response rating: 40
[6]; 125 g ai/ha
  Barnyardgrass plant response rating: 100
[7]; 31 g ai/ha
  Foxtail, Giant plant response rating: 50
[7]; 125 g ai/ha
  Foxtail, Giant plant response rating: 100
[8]; 31 g ai/ha
  Pigweed plant response rating: 100
[8]; 125 g ai/ha
  Pigweed plant response rating: 100
[9]; 31 g ai/ha
  Blackgrass plant response rating: 10
[9]; 125 g ai/ha
  Blackgrass plant response rating: 50
[10]; 31 g ai/ha
  Ragweed plant response rating: 0
[10]; 125 g ai/ha
  Ragweed plant response rating: 20
[11]; 16 g ai/ha, scale of 0 to 100
  Plant response rating, Soybean: 30
[11]; 31 g ai/ha, scale 0 to 100
  Plant response rating, Soybean: 40
[11]; 62 g ai/ha
  Soybean plant response rating: 70
[11]; 125 g ai/ha
  Soybean plant response rating: 75
[12]; 16 g ai/ha, scale of 0 to 100
  Plant response rating, Lambsquarters: 40
[12]; 31 g ai/ha, scale 0 to 100
  Plant response rating, Lambsquarters: 60
[12]; 62 g ai/ha
  Lambsquarters plant response rating: 50
[12]; 125 g ai/ha
  Lambsquarters plant response rating: 85
[13]; 16 g ai/ha, scale of 0 to 100
  Plant response rating, Oat, Wild: 5
[13]; 31 g ai/ha, scale 0 to 100
  Plant response rating, Oat, Wild: 5
[13]; 62 g ai/ha
  Oat, Wild plant response rating: 5
[13]; 125 g ai/ha
  Oat, Wild plant response rating: 5
[14]; 16 g ai/ha, scale of 0 to 100
  Plant response rating, Foxtail, Giant: 10
[14]; 31 g ai/ha, scale 0 to 100
  Plant response rating, Foxtail, Giant: 20
[14]; 62 g ai/ha
  Foxtail, Giant plant response rating: 25
[14]; 125 g ai/ha
  Foxtail, Giant plant response rating: 50
[15]; 16 g ai/ha, scale of 0 to 100
  Plant response rating, Waterhemp: 80
[15]; 31 g ai/ha, scale 0 to 100
  Plant response rating, Waterhemp: 85
[15]; [20]
  Waterhemp plant response rating: 100
[16]; 16 g ai/ha, scale of 0 to 100
  Plant response rating, Velvetleaf: 35
[16]; 31 g ai/ha, scale 0 to 100
  Plant response rating, Velvetleaf: 50
[16]; [20]
  Velvetleaf plant response rating: 85
[17]; 16 g ai/ha, scale of 0 to 100
  Plant response rating, Chickweed: 100
[17]; 31 g ai/ha, scale 0 to 100
  Plant response rating, Chickweed: 100
[17]; 62 g ai/ha
  Chickweed plant response rating: 100
[17]; 125 g ai/ha
  Chickweed plant response rating: 100
[18]; 16 g ai/ha, scale of 0 to 100
  Plant response rating, Ryegrass, Italian: 10
[18]; 31 g ai/ha, scale 0 to 100
  Plant response rating, Ryegrass, Italian: 15
[18]; 62 g ai/ha
  Ryegrass, Italian plant response rating: 10
[18]; 125 g ai/ha
  Ryegrass, Italian plant response rating: 30
[19]; 16 g ai/ha, scale of 0 to 100
  Plant response rating, Ragweed: 35
[19]; 31 g ai/ha, scale 0 to 100
  Plant response rating, Ragweed: 40
[19]; 62 g ai/ha
  Ragweed plant response rating: 60
[19]; 125 g ai/ha
  Ragweed plant response rating: 70
